Data as given in ChEMBL document CHEMBL4130624, “Optimization of 1,4-Oxazine β-Secretase 1 (BACE1) Inhibitors Toward a Clinical Candidate” (J Med Chem, 2018).
pIC50: −log10 of the molar value. ≈ marks a conversion by molar mass, not a printed value. Calls of active or inactive are those of the source. No cut-off for these calls is given here.

Assays:
hERG (KCNH2) = hERG (KCNH2) (Homo sapiens, UniProt Q12809); test: Inhibition of human ERG expressed in HEK293 cells assessed as reduction in outward potassium current at 3 uM at holding potential was -80 mV after 5 mins by patch clamp assay; type: cell-based; conditions: HEK293 cells that express hERG
[1] = Drug metabolism in mouse liver microsomes at 1 uM after 15 mins in presence of NADPH by HPLC-MS/MS analysis; type: ADME, microsome; conditions: read-out: Drug metabolism
[2] = Fraction unbound in rat brain at 5 uM after 5 hrs by HPLC-MS/MS method based rapid equilibrium dialysis; type: ADME, tissue-based
HepG2 = test: Cytotoxicity against human HepG2 cells assessed as effect on cell health indicators after 72 hrs by automated fluorescence microscopy based high content screening based assay; type: ADME; conditions: hepg2, 72 h
Cytochrome P450 1A2 = Cytochrome P450 1A2 (Homo sapiens, UniProt P05177); test: Reversible inhibition of recombinant human CYP1A2 by fluorescence-based assay; type: ADME
Cytochrome P450 2C8 = Cytochrome P450 2C8 (Homo sapiens, UniProt P10632); test: Reversible inhibition of recombinant human CYP2C8 by fluorescence-based assay; type: ADME
Cytochrome P450 3A4 = Cytochrome P450 3A4 (Homo sapiens, UniProt P08684); test: Time dependent inhibition of recombinant human CYP3A4 by fluorescence-based assay; type: ADME; conditions: recombinant enzyme
[3] = molecular target: Kappa-type opioid receptor (Cavia porcellus) (UniProt P41144); test: Inhibition of Dunkin Hartley guinea pig kappa-type opioid receptor at 10 uM after 5 mins
[4] = Clearance in Swiss mouse at 2.5 mg/kg, iv administered as bolus dose by LC-MS/MS analysis; type: ADME, organism-based; conditions: in vivo
[5] = Clearance in Sprague-Dawley rat at 2.5 mg/kg, iv administered as bolus dose by LC-MS/MS analysis; type: ADME, organism-based; conditions: in vivo
Canis familiaris [6] = test: Volume of distribution at steady state in Beagle dog at 1 mg/kg, iv administered as bolus dose by LC-MS/MS analysis; type: ADME, organism-based, Canis lupus familiaris; conditions: in vivo
[7] = Half life in Swiss mouse at 2.5 mg/kg, iv administered as bolus dose by LC-MS/MS analysis; type: ADME, organism-based; conditions: in vivo
Canis familiaris [8] = test: Half life in Beagle dog at 1 mg/kg, iv administered as bolus dose by LC-MS/MS analysis; type: ADME, organism-based, Canis lupus familiaris; conditions: in vivo
[9] = Cmax in Swiss mouse at 10 mg/kg, po administered as bolus dose by LC-MS/MS analysis; type: ADME, organism-based; design: dose 10 mg/kg, route oral; conditions: in vivo
[10] = Cmax in Sprague-Dawley rat at 10 mg/kg, po administered as bolus dose by LC-MS/MS analysis; type: ADME, organism-based; design: dose 10 mg/kg, route oral; conditions: in vivo
[11] = Tmax in Swiss mouse at 10 mg/kg, po administered as bolus dose by LC-MS/MS analysis; type: ADME, organism-based; conditions: in vivo
[12] = AUC (0 to infinity) in Swiss mouse at 10 mg/kg, po administered as bolus dose by LC-MS/MS analysis; type: ADME, organism-based; design: dose 10 mg/kg, time infinity, route oral; conditions: in vivo
[13] = AUC (0 to infinity) in Sprague-Dawley rat at 10 mg/kg, po administered as bolus dose by LC-MS/MS analysis; type: ADME, organism-based; design: dose 10 mg/kg, route oral, time infinity; conditions: in vivo
[14] = AUC (0 to infinity) in Beagle dog at 10 mg/kg, po administered as bolus dose by LC-MS/MS analysis; type: ADME, organism-based, Canis lupus familiaris; design: dose 10 mg/kg, time infinity, route oral; conditions: in vivo
[15] = Oral bioavailability in Sprague-Dawley rat at 10 mg/kg administered as bolus dose by LC-MS/MS analysis; type: ADME, organism-based; conditions: in vivo
Salmonella typhimurium [16] = test: Mutagenicity in Salmonella typhimurium TA98 up to 500 ug/ml in presence of rat liver S9 fraction by Ames 2 assay; type: toxicity, organism-based; conditions: salmonella enterica subsp. enterica serovar typhimurium
Salmonella typhimurium [17] = test: Mutagenicity in Salmonella typhimurium TA98 up to 500 ug/ml in absence of rat liver S9 fraction by Ames 2 assay; type: toxicity, organism-based; conditions: salmonella enterica subsp. enterica serovar typhimurium
Salmonella typhimurium [18] = test: Mutagenicity in Salmonella typhimurium TAmix up to 500 ug/ml in presence of rat liver S9 fraction by Ames 2 assay; type: toxicity, organism-based; conditions: salmonella enterica subsp. enterica serovar typhimurium
Salmonella typhimurium [19] = test: Mutagenicity in Salmonella typhimurium TAmix up to 500 ug/ml in absence of rat liver S9 fraction by Ames 2 assay; type: toxicity, organism-based; conditions: salmonella enterica subsp. enterica serovar typhimurium
[20] = Ratio of drug level in kidney to plasma of Sprague-Dawley rat at 10 mg/kg, po; type: ADME, organism-based
Rattus norvegicus [21] = test: Toxicity in Sprague-Dawley rat assessed as phospholipidosis at 225 mg/kg/day, po administered via gavage for 1 month followed by 1 month recovery period; type: organism-based; conditions: in vivo
Canis familiaris [22] = test: Antialzheimer activity in po dosed Beagle dog assessed as reduction in amyloid beta (1 to 40) levels measured after 1 hr post dose by ELISA; type: functional, organism-based, Canis lupus familiaris
[23] = Cmax in male Sprague-Dawley rat at 75 mg/kg, po measured after 1 month repeated dosing by LC-MS/MS analysis; type: ADME, organism-based; design: dose 75 mg/kg, route oral; conditions: in vivo
[24] = AUC (0 to 24 hrs) in male Sprague-Dawley rat at 75 mg/kg, po measured after 1 month repeated dosing by LC-MS/MS analysis; type: ADME, organism-based; design: time < 24 hr, dose 75 mg/kg, route oral; conditions: in vivo
[25] = Cmax in female Sprague-Dawley rat at 75 mg/kg, po measured after 1 month repeated dosing by LC-MS/MS analysis; type: ADME, organism-based; design: dose 75 mg/kg, route oral; conditions: in vivo
[26] = AUC (0 to 24 hrs) in female Sprague-Dawley rat at 75 mg/kg, po measured after 1 month repeated dosing by LC-MS/MS analysis; type: ADME, organism-based; design: time < 24 hr, dose 75 mg/kg, route oral; conditions: in vivo
Cavia porcellus = test: Cardiotoxicity in anesthetized guinea pigs assessed as QTcB prolongation at plasma concentration of 11500 ng/ml dosed up to 10 mg/kg, iv administered over a period of 5 min at 15 min interval by ECG analysis (reference value: 7%); type: toxicity, organism-based; conditions: guinea pig, in vivo
Canis familiaris [27] = test: Toxicity in Beagle dog assessed as drug tolerability at 0.63 to 20 mg/kg, po qd for 1 day; type: organism-based, Canis lupus familiaris; conditions: in vivo, 24 h
Canis familiaris [28] = test: Toxicity in Beagle dog assessed as induction of behavioural changes at 0.63 to 20 mg/kg, po qd for 1 day; type: organism-based, Canis lupus familiaris; conditions: in vivo, 24 h
Canis familiaris [29] = test: Toxicity in Beagle dog assessed as induction of appearance changes at 0.63 to 20 mg/kg, po qd for 1 day; type: organism-based, Canis lupus familiaris; conditions: in vivo, 24 h
[30] = Toxicity in Sprague-Dawley rat administered daily via oral gavage for 1 month; type: organism-based; conditions: in vivo
Rattus norvegicus [31] = test: Toxicity in Sprague-Dawley rat assessed as induction of tissue damage at 225 mg/kg/day, po administered via gavage for 1 month; type: organism-based; conditions: in vivo
Canis familiaris [32] = test: Toxicity in male beagle dog assessed as reduction in RBC parameters at 250 mg/kg/day, po qd for 1 month; type: organism-based, Canis lupus familiaris; conditions: in vivo
Canis familiaris [33] = test: Toxicity in male beagle dog at 20 to 250 mg/kg/day, po qd for 1 month followed by 1 month recovery period; type: organism-based, Canis lupus familiaris; conditions: in vivo
Homo sapiens = species: Homo sapiens; test: Selectivity for BACE1 (unknown origin) over BACE2 (unknown origin)
[34] = Cmax in female Beagle dog at 70 mg/kg, po measured after 1 month repeated dosing by LC-MS/MS analysis; conditions: in vivo
Canis familiaris [35] = test: Antialzheimer activity in po dosed Beagle dog assessed as reduction in CSF amyloid beta (1 to 42) levels measured after 49 hrs post dose by MesoScale electrochemiluminescence; conditions: Canis lupus familiaris

Cytochrome P450 3A4, sequence (P08684 whole entry): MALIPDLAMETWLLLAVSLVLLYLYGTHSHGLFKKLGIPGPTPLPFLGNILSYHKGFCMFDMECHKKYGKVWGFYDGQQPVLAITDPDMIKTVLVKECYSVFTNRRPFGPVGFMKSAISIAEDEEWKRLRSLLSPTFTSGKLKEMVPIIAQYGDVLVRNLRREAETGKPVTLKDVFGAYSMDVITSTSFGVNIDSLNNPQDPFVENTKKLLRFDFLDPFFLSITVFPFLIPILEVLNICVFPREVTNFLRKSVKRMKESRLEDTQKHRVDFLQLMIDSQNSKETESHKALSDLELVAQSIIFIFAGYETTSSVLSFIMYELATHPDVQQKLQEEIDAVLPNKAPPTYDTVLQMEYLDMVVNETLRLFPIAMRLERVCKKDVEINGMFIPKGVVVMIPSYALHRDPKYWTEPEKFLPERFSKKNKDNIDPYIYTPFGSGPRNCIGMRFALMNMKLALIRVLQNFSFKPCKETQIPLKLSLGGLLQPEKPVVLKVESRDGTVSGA
Cytochrome P450 2C8, sequence (P10632 whole entry): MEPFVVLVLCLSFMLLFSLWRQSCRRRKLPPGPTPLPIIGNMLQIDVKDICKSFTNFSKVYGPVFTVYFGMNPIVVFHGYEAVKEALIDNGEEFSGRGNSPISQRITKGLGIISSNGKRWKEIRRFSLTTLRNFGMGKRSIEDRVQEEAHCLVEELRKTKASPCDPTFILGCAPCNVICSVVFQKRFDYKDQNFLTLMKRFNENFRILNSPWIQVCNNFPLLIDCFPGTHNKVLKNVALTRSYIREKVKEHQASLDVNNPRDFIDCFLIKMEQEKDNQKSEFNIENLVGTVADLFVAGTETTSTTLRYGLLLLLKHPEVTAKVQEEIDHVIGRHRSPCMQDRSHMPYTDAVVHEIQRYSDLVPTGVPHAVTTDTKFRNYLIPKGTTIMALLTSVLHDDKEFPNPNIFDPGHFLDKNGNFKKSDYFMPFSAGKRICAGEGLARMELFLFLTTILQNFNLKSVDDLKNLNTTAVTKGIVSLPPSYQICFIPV
hERG (KCNH2), sequence (Q12809 whole entry): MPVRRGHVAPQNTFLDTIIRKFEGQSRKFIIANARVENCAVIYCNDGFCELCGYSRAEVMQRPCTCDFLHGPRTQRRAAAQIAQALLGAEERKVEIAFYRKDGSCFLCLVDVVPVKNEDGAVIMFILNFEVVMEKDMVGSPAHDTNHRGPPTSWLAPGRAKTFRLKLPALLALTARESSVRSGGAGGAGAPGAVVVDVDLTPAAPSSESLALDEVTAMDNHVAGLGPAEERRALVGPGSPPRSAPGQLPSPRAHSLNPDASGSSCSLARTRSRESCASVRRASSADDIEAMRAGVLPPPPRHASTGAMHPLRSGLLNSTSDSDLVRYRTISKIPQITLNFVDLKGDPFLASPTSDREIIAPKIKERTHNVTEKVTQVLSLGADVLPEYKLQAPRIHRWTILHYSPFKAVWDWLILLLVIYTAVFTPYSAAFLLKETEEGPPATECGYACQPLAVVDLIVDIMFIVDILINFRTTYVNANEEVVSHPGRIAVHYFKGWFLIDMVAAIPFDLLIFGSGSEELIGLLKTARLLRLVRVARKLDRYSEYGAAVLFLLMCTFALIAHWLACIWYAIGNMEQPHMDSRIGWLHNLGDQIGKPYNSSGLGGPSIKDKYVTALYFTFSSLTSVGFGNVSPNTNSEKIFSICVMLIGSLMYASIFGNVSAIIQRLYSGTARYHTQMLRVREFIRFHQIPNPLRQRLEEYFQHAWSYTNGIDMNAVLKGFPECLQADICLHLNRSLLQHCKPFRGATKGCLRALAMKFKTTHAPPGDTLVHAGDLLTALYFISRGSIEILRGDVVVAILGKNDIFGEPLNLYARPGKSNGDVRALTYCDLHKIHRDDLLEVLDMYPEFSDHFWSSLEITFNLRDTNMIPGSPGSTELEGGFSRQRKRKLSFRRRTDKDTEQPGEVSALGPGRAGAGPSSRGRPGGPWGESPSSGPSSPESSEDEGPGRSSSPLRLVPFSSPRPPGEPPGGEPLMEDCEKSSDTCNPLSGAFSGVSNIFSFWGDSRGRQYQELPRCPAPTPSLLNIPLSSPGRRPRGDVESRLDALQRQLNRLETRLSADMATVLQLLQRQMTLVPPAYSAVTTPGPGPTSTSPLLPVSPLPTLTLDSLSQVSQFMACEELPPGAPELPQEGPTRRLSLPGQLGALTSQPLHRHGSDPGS
Kappa-type opioid receptor (Cavia porcellus), sequence (P41144 whole entry): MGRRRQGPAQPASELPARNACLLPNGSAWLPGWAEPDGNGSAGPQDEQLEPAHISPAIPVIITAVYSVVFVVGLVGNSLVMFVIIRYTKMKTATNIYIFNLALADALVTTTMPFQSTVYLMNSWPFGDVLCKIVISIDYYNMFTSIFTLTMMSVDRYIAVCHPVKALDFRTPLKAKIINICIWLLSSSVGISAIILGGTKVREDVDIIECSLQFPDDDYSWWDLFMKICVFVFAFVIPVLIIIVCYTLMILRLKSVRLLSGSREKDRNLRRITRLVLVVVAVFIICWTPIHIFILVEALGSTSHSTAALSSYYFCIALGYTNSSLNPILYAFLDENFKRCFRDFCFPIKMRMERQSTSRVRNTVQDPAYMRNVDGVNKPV
Cytochrome P450 1A2, sequence (P05177 whole entry): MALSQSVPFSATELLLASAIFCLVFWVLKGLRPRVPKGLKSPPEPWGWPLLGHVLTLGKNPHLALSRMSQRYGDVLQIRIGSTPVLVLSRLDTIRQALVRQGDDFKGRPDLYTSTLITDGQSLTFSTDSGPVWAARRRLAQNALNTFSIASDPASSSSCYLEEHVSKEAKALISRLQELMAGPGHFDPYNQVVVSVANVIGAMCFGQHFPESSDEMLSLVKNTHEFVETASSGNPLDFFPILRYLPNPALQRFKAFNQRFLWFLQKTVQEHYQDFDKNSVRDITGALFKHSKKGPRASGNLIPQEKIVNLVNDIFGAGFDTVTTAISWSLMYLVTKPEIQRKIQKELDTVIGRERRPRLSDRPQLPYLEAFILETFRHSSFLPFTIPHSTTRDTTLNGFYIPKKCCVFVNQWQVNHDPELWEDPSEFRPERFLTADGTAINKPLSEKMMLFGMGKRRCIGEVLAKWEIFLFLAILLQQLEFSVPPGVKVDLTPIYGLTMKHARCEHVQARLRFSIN

C[C@]1(c2cc(NC(=O)c3ccc(C#N)cn3)ccc2F)N=C(N)CO[C@H]1C(F)(F)F
inhibition at 5 min, 3 µM (hERG (KCNH2)): 22% | metabolised at 0.25 h, 1 µM [1]: 13% | fraction unbound at 5 h, 5 µM [2]: 0.03 | MTC (HepG2): 31.5 µM | pIC50 (Cytochrome P450 1A2): < 4.52 | pIC50 (Cytochrome P450 2C8): < 4.52 | TDI (Cytochrome P450 3A4): Not Active | inhibition [3]: 76% | clearance [4]: 69 mL/min/kg | clearance [5]: 47 mL/min/kg | Vdss (Canis familiaris [6]): 7.6 L/kg | half-life [7]: 1.4 h | t1/2 (Canis familiaris [8]): 12 h | Cmax [9]: 333 nM | Cmax [10]: 160 nM | Tmax [11]: 1 h | AUC(0-inf) [12]: 1330 ng·h/mL | AUC(0-inf) [13]: 1220 ng·h/mL | AUC(0-inf) [14]: 15400 ng·h/mL | bioavailability [15]: 36% | Activity (Salmonella typhimurium [16]): Non-Toxic | Activity (Salmonella typhimurium [17]): Non-Toxic | Activity (Salmonella typhimurium [18]): Non-Toxic | Activity (Salmonella typhimurium [19]): Non-Toxic | Kp [20]: 19 | Activity (Rattus norvegicus [21]): Non-Toxic | fEC50 (Canis familiaris [22]): 0.065 µM | Activity (Canis familiaris [22]; Canis lupus familiaris): Dose-dependent effect | EC50 (Canis familiaris [22]; Canis lupus familiaris, Beagle, 1 h): 0.105 µg/mL (≈ 0.249 µM) | Cmax at 1 month [23]: 1490 ng/mL | AUC at 24 h [24]: 13700 ng·h/mL | Cmax at 1 month [25]: 2720 ng/mL | AUC at 24 h [26]: 38800 ng·h/mL | Activity (Cavia porcellus): 9% | Activity (Canis familiaris [27]): Non-Toxic | Activity (Canis familiaris [28]): Non-Toxic | Activity (Canis familiaris [29]): Non-Toxic | NOAEL at 1 month [30]: 75 mg/kg | Activity (Rattus norvegicus [31]): Non-Toxic | Activity (Canis familiaris [32]): Toxic | Activity (Canis familiaris [33]): Non-Toxic | Selectivity ratio (Homo sapiens): 10 | Cmax at 1 month [34]: 2080 ng/mL | Activity (Canis familiaris [35]): Active
